Laboratory results: ChEMBL document CHEMBL3621085, “Tetrazole regioisomers in the development of nitro group-containing antitubercular agents” (Medchemcomm, 2015)
Values after ≈ are worked out from the molar mass of the structure shown. Active and inactive are the calls of the source. The rule behind the calls is not given here.

Assays:
[1] = Cytotoxicity against CHOK1 cells assessed as viability after 24 hrs by MTT assay; type: cell-based; conditions: Cricetulus griseus, CHO-K1, 24 h
[2] = tested on: Mycobacterium kansasii; experiment: Antimycobacterial activity against Mycobacterium kansasii My 235/80 after 21 days by micromethod; type: functional; conditions: My 235/80, 504 h
[3] = tested on: Salmonella typhimurium; experiment: Mutagenic activity in Salmonella typhimurium TA98 assessed as induction of reverse mutation at 50 uM; type: toxicity, organism-based; conditions: salmonella enterica subsp. enterica serovar typhimurium
[4] = tested on: Mycobacterium tuberculosis; experiment: Antimycobacterial activity against Mycobacterium tuberculosis My 331/88 after 14 days by micromethod; type: functional; conditions: My 331/88, 336 h
[5] = tested on: Mycobacterium avium; experiment: Antimycobacterial activity against Mycobacterium avium My 330/88 after 21 days by micromethod; type: functional; conditions: My 330/88, 504 h
[6] = tested on: Mycobacterium avium; experiment: Antimycobacterial activity against Mycobacterium avium My 330/88 after 14 days by micromethod; type: functional; conditions: My 330/88, 336 h
[7] = tested on: Mycobacterium kansasii; experiment: Antimycobacterial activity against Mycobacterium kansasii My 235/80 after 14 days by micromethod; type: functional; conditions: My 235/80, 336 h
[8] = tested on: Mycobacterium kansasii; experiment: Antimycobacterial activity against Mycobacterium kansasii 6509/96 after 14 days by micromethod; type: functional; conditions: 6509/96, 336 h
[9] = tested on: Mycobacterium kansasii; experiment: Antimycobacterial activity against Mycobacterium kansasii 6509/96 after 7 days by micromethod; type: functional; conditions: 6509/96, 168 h
[10] = tested on: Mycobacterium kansasii; experiment: Antimycobacterial activity against Mycobacterium kansasii 6509/96 after 21 days by micromethod; type: functional; conditions: 6509/96, 504 h
[11] = tested on: Salmonella typhimurium; experiment: Mutagenic activity in Salmonella typhimurium TA100 assessed as induction of reverse mutation at 50 uM; type: toxicity, organism-based; conditions: salmonella enterica subsp. enterica serovar typhimurium
[12] = tested on: Mycobacterium tuberculosis; experiment: Antimycobacterial activity against Mycobacterium tuberculosis My 331/88 after 21 days by micromethod; type: functional; conditions: My 331/88, 504 h
[13] = tested on: Mycobacterium kansasii; experiment: Antimycobacterial activity against Mycobacterium kansasii My 235/80 after 7 days by micromethod; type: functional; conditions: My 235/80, 168 h
[14] = tested on: Lichtheimia corymbifera; experiment: Antifungal activity against Absidia corymbifera 272 after 24 to 48 hrs by broth micro dilution method; type: functional, organism-based
[15] = tested on: Candida tropicalis; experiment: Antifungal activity against Candida tropicalis 156 after 24 to 48 hrs by broth micro dilution method; type: functional, organism-based
[16] = tested on: Nakaseomyces glabratus; experiment: Antifungal activity against Candida glabrata 20/I after 24 to 48 hrs by broth micro dilution method; type: functional, organism-based
[17] = tested on: Klebsiella pneumoniae; experiment: Antibacterial activity against Klebsiella pneumoniae D 11750/08 after 24 to 48 hrs by broth micro dilution method; type: functional, organism-based
[18] = tested on: Trichosporon asahii; experiment: Antifungal activity against Trichosporon asahii 1188 after 24 to 48 hrs by broth micro dilution method; type: functional, organism-based
[19] = tested on: Staphylococcus aureus; experiment: Antibacterial activity against Staphylococcus aureus ATCC 6538 after 24 to 48 hrs by broth micro dilution method; type: functional, organism-based
[20] = tested on: Enterococcus faecalis; experiment: Antibacterial activity against Enterococcus faecalis J 14365/08 after 24 to 48 hrs by broth micro dilution method; type: functional, organism-based
[21] = tested on: Trichophyton mentagrophytes; experiment: Antifungal activity against Trichophyton mentagrophytes 445 after 72 to 120 hrs by broth micro dilution method; type: functional, organism-based
[22] = tested on: Klebsiella pneumoniae; experiment: Antibacterial activity against ESBL positive Klebsiella pneumoniae J 14368/08 after 24 to 48 hrs by broth micro dilution method; type: functional, organism-based
[23] = tested on: Staphylococcus aureus; experiment: Antibacterial activity against methicillin-resistant Staphylococcus aureus H 5996/08 after 24 to 48 hrs by broth micro dilution method; type: functional, organism-based
[24] = tested on: Aspergillus fumigatus; experiment: Antifungal activity against Aspergillus fumigatus 2318 after 24 to 48 hrs by broth micro dilution method; type: functional, organism-based
[25] = tested on: Staphylococcus epidermidis; experiment: Antibacterial activity against Staphylococcus epidermidis H 6966/08 after 24 to 48 hrs by broth micro dilution method; type: functional, organism-based
[26] = tested on: Pichia kudriavzevii; experiment: Antifungal activity against Candida krusei E28 after 24 to 48 hrs by broth micro dilution method; type: functional, organism-based
[27] = tested on: Escherichia coli; experiment: Antibacterial activity against Escherichia coli ATCC 8739 after 24 to 48 hrs by broth micro dilution method; type: functional, organism-based
[28] = tested on: Klebsiella pneumoniae; experiment: Antibacterial activity against Klebsiella pneumoniae J 14368/08 after 24 to 48 hrs by broth micro dilution method; type: functional, organism-based
[29] = tested on: Candida albicans; experiment: Antifungal activity against Candida albicans ATCC 44859 after 24 to 48 hrs by broth micro dilution method; type: functional, organism-based
[30] = tested on: Pseudomonas aeruginosa; experiment: Antibacterial activity against Pseudomonas aeruginosa ATCC 9027 after 24 to 48 hrs by broth micro dilution method; type: functional, organism-based
[31] = biological target: T1, Heme oxygenase 1 (Homo sapiens, UniProt P09601); experiment: Inhibition of heme oxygenase-1 (unknown origin)
T1 sequence (P09601 whole entry): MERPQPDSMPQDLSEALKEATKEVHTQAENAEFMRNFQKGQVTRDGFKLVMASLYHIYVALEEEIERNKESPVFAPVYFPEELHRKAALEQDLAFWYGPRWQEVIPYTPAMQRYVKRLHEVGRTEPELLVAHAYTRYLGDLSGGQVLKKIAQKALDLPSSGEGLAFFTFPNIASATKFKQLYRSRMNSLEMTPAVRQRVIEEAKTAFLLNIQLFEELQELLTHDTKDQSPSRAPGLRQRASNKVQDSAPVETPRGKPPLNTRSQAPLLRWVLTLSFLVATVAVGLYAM

## O=[N+]([O-])c1cc(CSc2nnn(Cc3ccc(Cl)cc3)n2)cc([N+](=O)[O-])c1
[1]
  IC50: 301 µM
[2]
  MIC: 16 µM (≈ 6.51 µg/mL)
[3]
  Activity: Toxic
[4]
  MIC: 1 µM (≈ 0.407 µg/mL)
[5]
  MIC: 16 µM (≈ 6.51 µg/mL)
[6]
  MIC: 16 µM (≈ 6.51 µg/mL)
[7]
  MIC: 8 µM (≈ 3.25 µg/mL)
[8]
  MIC: 16 µM (≈ 6.51 µg/mL)
[9]
  MIC: 16 µM (≈ 6.51 µg/mL)
[10]
  MIC: 32 µM (≈ 13 µg/mL)
[11]
  Activity: Toxic
[12]
  MIC: 2 µM (≈ 0.814 µg/mL)
[13]
  MIC: 4 µM (≈ 1.63 µg/mL)

## O=[N+]([O-])c1cc(C[Se]c2nnn(Cc3ccccc3)n2)cc([N+](=O)[O-])c1
[14]
  Activity: inactive
[1]
  IC50: 136 µM
[15]
  Activity: inactive
[16]
  Activity: inactive
[2]
  MIC: 1 µM (≈ 0.419 µg/mL)
[17]
  Activity: inactive
[3]
  Activity: Toxic
[18]
  Activity: inactive
[19]
  Activity: inactive
[4]
  MIC: 1 µM (≈ 0.419 µg/mL)
[20]
  Activity: inactive
[5]
  MIC: 32 µM (≈ 13.4 µg/mL)
[21]
  Activity: inactive
[22]
  Activity: inactive
[23]
  Activity: inactive
[24]
  Activity: inactive
[25]
  Activity: inactive
[26]
  Activity: inactive
[6]
  MIC: 16 µM (≈ 6.71 µg/mL)
[7]
  MIC: 1 µM (≈ 0.419 µg/mL)
[8]
  MIC: 1 µM (≈ 0.419 µg/mL)
[9]
  MIC: 1 µM (≈ 0.419 µg/mL)
[10]
  MIC: 2 µM (≈ 0.839 µg/mL)
[27]
  Activity: inactive
[28]
  Activity: inactive
[11]
  Activity: Toxic
[29]
  Activity: inactive
[12]
  MIC: 1 µM (≈ 0.419 µg/mL)
[13]
  MIC: 1 µM (≈ 0.419 µg/mL)
[30]
  Activity: inactive

## O=[N+]([O-])c1cc(CSc2nnnn2Cc2ccc(Cl)cc2)cc([N+](=O)[O-])c1
[1]
  IC50: 94 µM
[2]
  MIC: 4 µM (≈ 1.63 µg/mL)
[3]
  Activity: Toxic
[4]
  MIC: 2 µM (≈ 0.814 µg/mL)
[5]
  MIC: 125 µM (≈ 50.9 µg/mL)
[6]
  MIC: 125 µM (≈ 50.9 µg/mL)
[7]
  MIC: 2 µM (≈ 0.814 µg/mL)
[8]
  MIC: 8 µM (≈ 3.25 µg/mL)
[9]
  MIC: 4 µM (≈ 1.63 µg/mL)
[10]
  MIC: 8 µM (≈ 3.25 µg/mL)
[11]
  Activity: Toxic
[12]
  MIC: 4 µM (≈ 1.63 µg/mL)
[13]
  MIC: 2 µM (≈ 0.814 µg/mL)

## O=[N+]([O-])c1cc(CSc2nnnn2Cc2ccccc2)cc([N+](=O)[O-])c1
[14]
  Activity: inactive
[1]
  IC50: 59 µM
[15]
  Activity: inactive
[16]
  Activity: inactive
[2]
  MIC: 8 µM (≈ 2.98 µg/mL)
[17]
  Activity: inactive
[3]
  Activity: Non-toxic
[18]
  Activity: inactive
[19]
  Activity: inactive
[4]
  MIC: 1 µM (≈ 0.372 µg/mL)
[20]
  Activity: inactive
[5]
  MIC: 250 µM (≈ 93.1 µg/mL)
[21]
  Activity: inactive
[22]
  Activity: inactive
[23]
  Activity: inactive
[24]
  Activity: inactive
[25]
  Activity: inactive
[26]
  Activity: inactive
[6]
  MIC: 250 µM (≈ 93.1 µg/mL)
[7]
  MIC: 8 µM (≈ 2.98 µg/mL)
[8]
  MIC: 4 µM (≈ 1.49 µg/mL)
[9]
  MIC: 2 µM (≈ 0.745 µg/mL)
[10]
  MIC: 4 µM (≈ 1.49 µg/mL)
[27]
  Activity: inactive
[28]
  Activity: inactive
[11]
  Activity: Non-toxic
[29]
  Activity: inactive
[12]
  MIC: 2 µM (≈ 0.745 µg/mL)
[13]
  MIC: 2 µM (≈ 0.745 µg/mL)
[30]
  Activity: inactive

## O=[N+]([O-])c1cc(CSc2nnn(Cc3ccccc3)n2)cc([N+](=O)[O-])c1
[14]
  Activity: inactive
[1]
  IC50: 41 µM
[15]
  Activity: inactive
[16]
  Activity: inactive
[2]
  MIC: 16 µM (≈ 5.96 µg/mL)
[17]
  Activity: inactive
[3]
  Activity: Toxic
[18]
  Activity: inactive
[19]
  Activity: inactive
[4]
  MIC: 1 µM (≈ 0.372 µg/mL)
[20]
  Activity: inactive
[5]
  MIC: 125 µM (≈ 46.5 µg/mL)
[21]
  Activity: inactive
[22]
  Activity: inactive
[23]
  Activity: inactive
[24]
  Activity: inactive
[25]
  Activity: inactive
[26]
  Activity: inactive
[6]
  MIC: 62 µM (≈ 23.1 µg/mL)
[7]
  MIC: 16 µM (≈ 5.96 µg/mL)
[8]
  MIC: 4 µM (≈ 1.49 µg/mL)
[9]
  MIC: 4 µM (≈ 1.49 µg/mL)
[10]
  MIC: 8 µM (≈ 2.98 µg/mL)
[27]
  Activity: inactive
[28]
  Activity: inactive
[11]
  Activity: Toxic
[29]
  Activity: inactive
[12]
  MIC: 1 µM (≈ 0.372 µg/mL)
[13]
  MIC: 8 µM (≈ 2.98 µg/mL)
[30]
  Activity: inactive

## O=C(CCc1ccccc1)Cn1cnnn1
[31]
  IC50: 2.6 µM

## O=[N+]([O-])c1cc(C[Se]c2nnnn2Cc2ccccc2)cc([N+](=O)[O-])c1
[14]
  Activity: inactive
[1]
  IC50: 71 µM
[15]
  Activity: inactive
[16]
  Activity: inactive
[2]
  MIC: 4 µM (≈ 1.68 µg/mL)
[17]
  Activity: inactive
[3]
  Activity: Toxic
[18]
  Activity: inactive
[19]
  Activity: inactive
[4]
  MIC: 1 µM (≈ 0.419 µg/mL)
[20]
  Activity: inactive
[5]
  MIC: 32 µM (≈ 13.4 µg/mL)
[21]
  Activity: inactive
[22]
  Activity: inactive
[23]
  Activity: inactive
[24]
  Activity: inactive
[25]
  Activity: inactive
[26]
  Activity: inactive
[6]
  MIC: 32 µM (≈ 13.4 µg/mL)
[7]
  MIC: 4 µM (≈ 1.68 µg/mL)
[8]
  MIC: 8 µM (≈ 3.35 µg/mL)
[9]
  MIC: 4 µM (≈ 1.68 µg/mL)
[10]
  MIC: 8 µM (≈ 3.35 µg/mL)
[27]
  Activity: inactive
[28]
  Activity: inactive
[11]
  Activity: Toxic
[29]
  Activity: inactive
[12]
  MIC: 2 µM (≈ 0.839 µg/mL)
[13]
  MIC: 2 µM (≈ 0.839 µg/mL)
[30]
  Activity: inactive
